Measured values as given in patent publication US8188138B2, “Sulphonylpyrrole hydrochloride salts as histone deacetylases inhibitors” (4SC AG, priority 2005, dated 2012).
Like-named read-outs stand apart in the source and are kept apart here.

How the values were obtained:
Format in all cases: cell-based
[1] = test system: histone H3 hyperacetylation in HeLa cervical carcinoma cells; assay: Cellular histone H3 hyperacetylation assay; settings: Homo sapiens, 24 h, range stated for the listed group, read-out: Induction of histone H3 hyperacetylation EC50
Description: To assess the cellular efficacy of a histone deacetylase inhibitor in vitro, an assay was set up in black clear-bottom 96-well plates and optimized for use on the Cellomics “ArrayScan II” platform for a quantitative calculation of histone acetylation. The protocol uses a polyclonal rabbit antibody, specifically binding to acetylated lysine 23 or, alternatively, acetylated lysine 9+14 of human histone H3 on fixed cells with an Alexa Fluor 488 labeled goat anti rabbit-IgG used for counterstaining (modified from Braunger et al. AACR annual conference 2003, Abstract 4556). 5×10^3 HeLa cervical carcinoma cells/well (ATCC CCL-2) in 200 μl Dulbecco's modified Eagle's medium (DMEM) containing 10% fetal calf serum are seeded at day 1 in Packard view plates and incubated for 24 h under standard cell culture conditions. On day 2, 1 μl test compound (200× final concentration) is added and incubation continued for further 24 h. On day 3, the culture medium is discarded and attached cells fixed for 15 min at room temperature by addition of 100 μl fixation buffer (3.7% v:v formaldehyde in phosphate buffered saline/PBS). After discarding the fixation buffer and one wash with blocking solution (1% BSA, 0.3% Tween 20 in PBS), cells are permeabilized at room temperature by addition of 100 μl/well permeabilization buffer (30.8 mM NaCl, 0.54 mM Na2HPO4, 0.31 mM KH2PO4, 0.1% v:v […]) for 15 min at room temperature. After discarding the permeabilization buffer and washing twice with 100 μl/well blocking solution at room temperature, the 1st antibody (anti-K23 histone H3 antibody, Cell Signaling No. 9674 or, alternatively, anti-K9+14 histone H3 antibody, Calbiochem No. 382158) in blocking solution (50 μl/well) is added. After incubation for 1 h at room temperature, the wells are washed twice at room temperature with 100 μl/well blocking solution before addition of the 2nd antibody (goat-anti-rabbit Alexa Fluor 488; MoBiTec No. A-11008) in blocking solution (50 μl/well). After further incubation for 1 h at room temperature, wells are washed twice with 100 μl/well blocking solution at room temperature. Finally, 100 μl/well PBS are added and image analysis performed on the Cellomics “ArrayScan II” platform. For EC50 determination, the percentage of positive cells showing nuclear fluorescence is determined and EC50 calculation done from concentration-effect curves by means of non-linear regression. For calibration, a positive (reference HDAC inhibitors like SAHA or NVP LBH-589) and a negative control were included.

[2] = test system: HeLa cervical carcinoma cells; assay: Cellular cytotoxicity assay (Alamar Blue), HeLa; settings: Homo sapiens, 72 h, range stated for the listed group
Protocol: (§1) The anti-proliferative activity of the histone deacetylase inhibitory compounds as described herein, was evaluated using the following cell lines: HeLa and HeLa—KB (cervical carcinoma), H460 (non small cell lung cancer), A549 (non-small cell lung cancer), MCF7 (breast carcinoma), MCF10A (normal, non tumorigenic breast epithelial), MDA-MB468 (breast carcinoma), MDA-MB435 (breast carcinoma), MDA-MB231 (breast carcinoma), SKBR-3 (breast carcinoma), SKOV-3 (ovarial carcinoma), A-2780 (ovarial carcinoma), RKO (colon carcinoma), HCT-15 (colon carcinoma), HCT-116 (colon carcinoma), PC3 (prostate carcinoma), BPH1 (benign prostate hyperplasia), AsPC1 (pancreatic carcinoma), Cal27 (tongue carcinoma), A-431 (vulva carcinoma), HeclA (endometrial carcinoma), Saos-2 (osteosarcoma), U87MG (glioblastoma), WM266-4 (melanoma), K562 (chronic myeloid carcinoma), EOL1 (acute hypereosinophilic myeloid leukemia), CCRF-CEM and CCRF-CEM VCR1000 (acute lymphoblastic leukemia sensitive and resistant towards Vincristine). For quantification of cellular proliferation/living cells the Alamar Blue (Resazurin) cell viability assay was applied (O'Brien et al. Eur J Biochem 267, 5421-5426, 2000). In this assay Resazurin is reduced to the fluorescent resorufin by cellular dehydrogenase activity, correlating with viable, proliferating cells. The examples were dissolved as 20 mM solutions in dimethylsulfoxide (DMSO) and subsequently diluted in semi-logarithmic steps. Cell lines were seeded at respective density into 96 well flat bottom plates in a volume of 200 μl per well. 24 hours after seeding 1 μl each of the compound dilutions were added into each well of the 96 well plate. Each compound dilution was tested as quadruplicates. Wells containing untreated control cells were filled with 200 μl DMEM medium containing 0.5% v:v DMSO. The cells were then incubated with the substances for 72 hours at 37° C. in a humidified atmosphere containing 5% carbon dioxide. To determine the viability of the cells, 20 μl of an Resazurin solution (Sigma; 90 mg/l) were added. After 4 hours incubation at 37° C. the fluorescence was measured at an extinction of 544 nm and an emission of 590 nm. For the calculation of the cell viability the emission value from untreated cells was set as 100% viability and the emission rates of treated cells were set in relation to the values of untreated cells. Viabilities were expressed as % values. The corresponding IC50 values of the compounds for cytotoxic activity are determined from the concentration-effect curves by means of non-linear regression.

[3] = test system: RKO colon carcinoma cells; assay: Cell-cycle dependent cytotoxicity, RKO exop21 cell system; settings: Homo sapiens, 72 h, range stated for the listed group
Protocol: For determination of cell-cycle dependent cytotoxicity, the RKO exop21 cell system was applied (Schmidt et al. Oncogene 19: 2423-2429, 2000). Briefly, RKO cells with/without p21^waf1 expression (2×10^4 cells/well induced, 6×10^3 cells/well not induced) were treated with the examples for 72 h and metabolic activity quantified as described before. The expression of p21^waf1 was induced by treatment with Pronasterone A, causing a complete proliferation arrest of RKO cells in the G1 and G2 phases of the cell division cycle.

[4] = test system: MDA-MB468 breast cancer cells; assay: Breast cancer cell differentiation assay (Nile Red, flow cytometry); settings: 24 h; for Neutral & phospholipids (%): differentiated cells; for Phospholipids (%): undifferentiated cells
Protocol: For quantification of MDA-MB468 breast cancer cell differentiation (described by Munster et al. Canc. Res. 61(23), pp 8492, 2001), 1× E6 cells were seeded in 10 cm cell culture dishes and, after cultivation for 24 h, treated with HDI for further 24 h. Finally, cells were collected by trypsination, washed twice with PBS and resuspended in 1 ml of staining solution ([…] Nile Red in PBS). After incubation for at least 5 min at room temperature, cells were analysed by flow cytometry on a FACS Calibur device (Ex 488 nm, Em. at 530 nm/FL-1 and >630 nm/FL-3). From respective histograms the percentage of cells with fluorescence at 650 nm (phospholipids) and 530 nm+650 nm (phospho- and neutral lipids) were calculated. For microscopic analysis, MDA-MB468 cells were cultivated on two-well chamber slides, treated with test compound for 24 h, fixed with 1.5 vol % glutaraldehyde/PBS and finally treated with staining solution. After washing with PBS, cells were analysed by fluorescence microscopy.
The percentage of differentiated cells with neutral and phospholipids as well as undifferentiated cells with phospholipids only are summarized in the table 5.

A549 cell line = assay: Combination experiment with Trail in A549; settings: example at about its IC50 combined with Trail
Protocol: A549 non-small cell lung cancer, MDA-MB468 breast cancer and […] colorectal cancer cell lines were pretreated with the examples for 4 h before adding the chemotherapeutic agents or Trail and further incubation for 72 h total. The IC50 values of these combinations were determined from concentration-effect curves and compared to IC50 values of cell treated with the anti-cancer agent only.

[5] = test system: broad selection of non-malignant cell lines and fully transformed malignant cancer cell lines; assay: Anti-proliferative activity across cell line panel (Alamar Blue); settings: mean over non-malignant and malignant cell lines
Protocol: as §1

[6] = arrested RKO cells, p21waf1 expressed, read-out: RKO arrested (p21^waf1 expressed) IC50
[7] = proliferating RKO cells, read-out: RKO proliferating IC50

| Structure (SMILES) | EC50 [1] [µM] | IC50 [2] [µM] | IC50 [3, 6] [µM] | IC50 [3, 7] [µM] | Neutral & phospholipids (%) ([4]; 0.8 μM) | Phospholipids (%) ([4]; 0.8 μM) | Effect of combination with Trail (A549 cell line) | IC50 [5] [µM] | Neutral & phospholipids (%) ([4]; 2 μM) | Phospholipids (%) ([4]; 2 μM) | Neutral & phospholipids (%) ([4]; 5 μM) | Phospholipids (%) ([4]; 5 μM) |
| --- | --- | --- | --- | --- | --- | --- | --- | --- | --- | --- | --- | --- |
| O=C(/C=C/c1ccn(S(=O)(=O)c2ccc(-c3ccccn3)s2)c1)NO [Compound 24, (E)-N-Hydroxy-3-[1-(5-pyridin-2-yl-thiophene-2-sulfonyl)-1H-pyrrol-3-yl]-acrylamide] | 0.08 to 16 | 0.07 to 5 | 0.45 to 15 | 0.15 to 5.1 | 67.3 | 27.9 | synergism is highly likely | 0.57 |  |  |  |  |
| Nc1ccccc1NC(=O)/C=C/c1ccn(S(=O)(=O)c2ccc(-c3ccccc3)cc2)c1 [Compound 7, (E)-N-(2-Amino-phenyl)-3-[1-(biphenyl-4-sulfonyl)-1H-pyrrol-3-yl]-acrylamide] | 2.15 to 51.3 | 0.8 to 21.6 |  |  |  |  |  |  |  |  |  |  |
| CN(C)Cc1ccc(S(=O)(=O)n2ccc(/C=C/C(=O)NO)c2)cc1 [Compound 10, (E)-3-[1-(4-Dimethylaminomethyl-benzenesulfonyl)-1H-pyrrol-3-yl]-N-hydroxy-acrylamide] |  | 0.07 to 5 | 0.45 to 15 | 0.15 to 5.1 |  |  | synergism is highly likely | 4.6 | 55.5 | 41.6 | 70.2 | 25.2 |

Now from value to compound, other results behind:

| EC50 [1] [µM] | Structure (SMILES) | IC50 [2] [µM] | IC50 [3, 6] [µM] | IC50 [3, 7] [µM] | Neutral & phospholipids (%) ([4]; 0.8 μM) | Phospholipids (%) ([4]; 0.8 μM) | Effect of combination with Trail (A549 cell line) | IC50 [5] [µM] | Neutral & phospholipids (%) ([4]; 2 μM) | Phospholipids (%) ([4]; 2 μM) | Neutral & phospholipids (%) ([4]; 5 μM) | Phospholipids (%) ([4]; 5 μM) |
| --- | --- | --- | --- | --- | --- | --- | --- | --- | --- | --- | --- | --- |
| 2.15 to 51.3 | O=C(C=Cc1ccn(S(=O)(=O)Cc2ccccc2)c1)NO [Compound 2, N-Hydroxy-3-(1-phenylmethanesulfonyl-1H-pyrrol-3-yl)-acrylamide] | 0.8 to 21.6 |  |  |  |  |  |  |  |  |  |  |
| 2.15 to 51.3 | CN(C)c1ccc(S(=O)(=O)n2ccc(/C=C/C(=O)NO)c2)cc1 [Compound 4, (E)-3-[1-(4-Dimethylamino-benzenesulfonyl)-1H-pyrrol-3-yl]-N-hydroxy-acrylamide] | 0.8 to 21.6 |  |  |  |  |  |  |  |  |  |  |
